Measurements: PubChem BioAssay (NCI)
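96-well plates; 48 h exposure; 5 concentrations. Endpoints by linear interpolation between flanking doses. Not reached: highest tested concentration assigned. GI50 is the concentration that inhibits growth by half. TGI denotes the concentration required for complete inhibition of growth.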

Key:
Experiment in all cases: inhibition of tumour cell growth, NCI panel, 48 h
HOP-62 NSCLC = tested on: HOP-62 NSCLC
NCI-H460 lung = tested on: NCI-H460 lung
NCI-H23 lung = tested on: NCI-H23 lung
SK-MEL-2 melanoma = tested on: SK-MEL-2 melanoma
UACC-62 melanoma = tested on: UACC-62 melanoma
OVCAR-3 ovarian = tested on: OVCAR-3 ovarian
MDA-MB-231 breast = tested on: MDA-MB-231 breast
OVCAR-8 ovarian = tested on: OVCAR-8 ovarian
HCT-15 colon = tested on: HCT-15 colon
M14 melanoma = tested on: M14 melanoma
NCI/ADR-RES ovarian = tested on: NCI/ADR-RES ovarian
MCF7 breast = tested on: MCF7 breast
UO-31 renal = tested on: UO-31 renal
SW-620 colon = tested on: SW-620 colon
KM12 colon = tested on: KM12 colon
PC-3 prostate = tested on: PC-3 prostate
COLO 205 colon = tested on: COLO 205 colon
OVCAR-5 ovarian = tested on: OVCAR-5 ovarian
MDA-MB-435 = tested on: MDA-MB-435
HCC-2998 colon = tested on: HCC-2998 colon
IGROV1 ovarian = tested on: IGROV1 ovarian
HS 578T breast = tested on: HS 578T breast
MALME-3M melanoma = tested on: MALME-3M melanoma
UACC-257 melanoma = tested on: UACC-257 melanoma
U251 CNS = tested on: U251 CNS
MOLT-4 leukemia = tested on: MOLT-4 leukemia
SK-OV-3 ovarian = tested on: SK-OV-3 ovarian
SNB-75 CNS = tested on: SNB-75 CNS
RXF 393 renal = tested on: RXF 393 renal
SF-539 CNS = tested on: SF-539 CNS
SN12C renal = tested on: SN12C renal
SF-268 CNS = tested on: SF-268 CNS
SNB-19 CNS = tested on: SNB-19 CNS
HCT-116 colon = tested on: HCT-116 colon
HT29 colon = tested on: HT29 colon
K-562 leukemia = tested on: K-562 leukemia
NCI-H522 lung = tested on: NCI-H522 lung
NCI-H226 lung = tested on: NCI-H226 lung
SF-295 CNS = tested on: SF-295 CNS
RPMI-8226 leukemia = tested on: RPMI-8226 leukemia
A498 renal = tested on: A498 renal
SK-MEL-5 melanoma = tested on: SK-MEL-5 melanoma
SK-MEL-28 melanoma = tested on: SK-MEL-28 melanoma
786-0 renal = tested on: 786-0 renal
CCRF-CEM leukemia = tested on: CCRF-CEM leukemia
EKVX NSCLC = tested on: EKVX NSCLC
T-47D breast = tested on: T-47D breast
A549 NSCLC = tested on: A549 NSCLC
LOX IMVI melanoma = tested on: LOX IMVI melanoma
OVCAR-4 ovarian = tested on: OVCAR-4 ovarian
CAKI-1 renal = tested on: CAKI-1 renal
ACHN renal = tested on: ACHN renal
BT-549 breast = tested on: BT-549 breast
DU-145 prostate = tested on: DU-145 prostate
TK-10 renal = tested on: TK-10 renal

C=C(CN(C)Cc1ccccc1)c1ccc(NC(=O)c2ccc(C(=C)CN(C)Cc3ccccc3)cc2)cc1
GI50 (HOP-62 NSCLC): 18.8 µM | TGI (HOP-62 NSCLC): 36.9 µM | GI50 (NCI-H460 lung): 97.3 µM | TGI (NCI-H460 lung): > 100 µM | GI50 (NCI-H23 lung): 49.4 µM | TGI (NCI-H23 lung): > 100 µM | GI50 (SK-MEL-2 melanoma): 60.9 µM | TGI (SK-MEL-2 melanoma): > 100 µM | GI50 (UACC-62 melanoma): 50.2 µM | TGI (UACC-62 melanoma): > 100 µM | GI50 (OVCAR-3 ovarian): > 100 µM | TGI (OVCAR-3 ovarian): > 100 µM | GI50 (MDA-MB-231 breast): 54.9 µM | TGI (MDA-MB-231 breast): > 100 µM | GI50 (OVCAR-8 ovarian): 45.3 µM | TGI (OVCAR-8 ovarian): > 100 µM | GI50 (HCT-15 colon): 76.5 µM | TGI (HCT-15 colon): > 100 µM | GI50 (M14 melanoma): > 100 µM | TGI (M14 melanoma): > 100 µM | GI50 (NCI/ADR-RES ovarian): 34.8 µM | TGI (NCI/ADR-RES ovarian): > 100 µM | GI50 (MCF7 breast): 59.3 µM | TGI (MCF7 breast): > 100 µM | GI50 (UO-31 renal): 76.2 µM | TGI (UO-31 renal): > 100 µM | GI50 (SW-620 colon): 96.7 µM | TGI (SW-620 colon): > 100 µM | GI50 (KM12 colon): > 100 µM | TGI (KM12 colon): > 100 µM | GI50 (PC-3 prostate): 11 µM | TGI (PC-3 prostate): 23 µM | GI50 (COLO 205 colon): > 100 µM | TGI (COLO 205 colon): > 100 µM | GI50 (OVCAR-5 ovarian): > 100 µM | TGI (OVCAR-5 ovarian): > 100 µM | GI50 (MDA-MB-435): > 100 µM | TGI (MDA-MB-435): > 100 µM | GI50 (HCC-2998 colon): 37.2 µM | TGI (HCC-2998 colon): > 100 µM | GI50 (IGROV1 ovarian): 18.5 µM | TGI (IGROV1 ovarian): 53.2 µM | GI50 (HS 578T breast): 40 µM | TGI (HS 578T breast): > 100 µM | GI50 (MALME-3M melanoma): > 100 µM | TGI (MALME-3M melanoma): > 100 µM | GI50 (UACC-257 melanoma): > 100 µM | TGI (UACC-257 melanoma): > 100 µM | GI50 (U251 CNS): 20.7 µM | TGI (U251 CNS): 45.7 µM | GI50 (MOLT-4 leukemia): 49.8 µM | TGI (MOLT-4 leukemia): > 100 µM | GI50 (SK-OV-3 ovarian): 33.7 µM | TGI (SK-OV-3 ovarian): > 100 µM | GI50 (SNB-75 CNS): 13.9 µM | TGI (SNB-75 CNS): 32.2 µM | GI50 (RXF 393 renal): 32 µM | TGI (RXF 393 renal): 99.3 µM | GI50 (SF-539 CNS): 68.8 µM | TGI (SF-539 CNS): > 100 µM | GI50 (SN12C renal): > 100 µM | TGI (SN12C renal): > 100 µM | GI50 (SF-268 CNS): 39.3 µM | TGI (SF-268 CNS): > 100 µM | GI50 (SNB-19 CNS): 25.5 µM | TGI (SNB-19 CNS): 80.1 µM | GI50 (HCT-116 colon): 31.7 µM | TGI (HCT-116 colon): > 100 µM | GI50 (HT29 colon): > 100 µM | TGI (HT29 colon): > 100 µM | GI50 (K-562 leukemia): 45 µM | TGI (K-562 leukemia): > 100 µM | GI50 (NCI-H522 lung): > 100 µM | TGI (NCI-H522 lung): > 100 µM | GI50 (NCI-H226 lung): 34.6 µM | TGI (NCI-H226 lung): > 100 µM | GI50 (SF-295 CNS): 71.4 µM | TGI (SF-295 CNS): > 100 µM | GI50 (RPMI-8226 leukemia): 21.7 µM | TGI (RPMI-8226 leukemia): 53.6 µM | GI50 (A498 renal): 20.8 µM | TGI (A498 renal): 48.9 µM | GI50 (SK-MEL-5 melanoma): 68.3 µM | TGI (SK-MEL-5 melanoma): > 100 µM | GI50 (SK-MEL-28 melanoma): > 100 µM | TGI (SK-MEL-28 melanoma): > 100 µM | GI50 (786-0 renal): 25.6 µM | TGI (786-0 renal): 65.4 µM | GI50 (CCRF-CEM leukemia): > 100 µM | TGI (CCRF-CEM leukemia): > 100 µM | GI50 (EKVX NSCLC): 73.3 µM | TGI (EKVX NSCLC): > 100 µM | GI50 (T-47D breast): 20.7 µM | TGI (T-47D breast): 87.4 µM | GI50 (A549 NSCLC): 77.8 µM | TGI (A549 NSCLC): > 100 µM | GI50 (LOX IMVI melanoma): 94.8 µM | TGI (LOX IMVI melanoma): > 100 µM | GI50 (OVCAR-4 ovarian): 17.6 µM | TGI (OVCAR-4 ovarian): 38.6 µM | GI50 (CAKI-1 renal): 53 µM | TGI (CAKI-1 renal): > 100 µM | GI50 (ACHN renal): 66.6 µM | TGI (ACHN renal): > 100 µM | GI50 (BT-549 breast): > 100 µM | TGI (BT-549 breast): > 100 µM | GI50 (DU-145 prostate): 71.6 µM | TGI (DU-145 prostate): > 100 µM | GI50 (TK-10 renal): > 100 µM | TGI (TK-10 renal): > 100 µM
